Assay results: ChEMBL document CHEMBL1201862, “PubChem BioAssay data set” (2004)
Activity calls are given as the source filed them.

Columns and labels:
Cysteine protease ATG4B = Cysteine protease ATG4B (Homo sapiens, UniProt Q9Y4P1); type: functional;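 also: Fluorescence-based dose-response confirmation assay measuring inhibition of ATG4B activity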
[1] = biological target: T1, Replicative DNA helicase DnaB (Mycobacterium tuberculosis, UniProt P9WMR3); assay: DnaB intein splicing inhibitors, dose response, biochemical, cell-free fluorescence (AID 449749); type: functional
T1 sequence (P9WMR3 whole entry): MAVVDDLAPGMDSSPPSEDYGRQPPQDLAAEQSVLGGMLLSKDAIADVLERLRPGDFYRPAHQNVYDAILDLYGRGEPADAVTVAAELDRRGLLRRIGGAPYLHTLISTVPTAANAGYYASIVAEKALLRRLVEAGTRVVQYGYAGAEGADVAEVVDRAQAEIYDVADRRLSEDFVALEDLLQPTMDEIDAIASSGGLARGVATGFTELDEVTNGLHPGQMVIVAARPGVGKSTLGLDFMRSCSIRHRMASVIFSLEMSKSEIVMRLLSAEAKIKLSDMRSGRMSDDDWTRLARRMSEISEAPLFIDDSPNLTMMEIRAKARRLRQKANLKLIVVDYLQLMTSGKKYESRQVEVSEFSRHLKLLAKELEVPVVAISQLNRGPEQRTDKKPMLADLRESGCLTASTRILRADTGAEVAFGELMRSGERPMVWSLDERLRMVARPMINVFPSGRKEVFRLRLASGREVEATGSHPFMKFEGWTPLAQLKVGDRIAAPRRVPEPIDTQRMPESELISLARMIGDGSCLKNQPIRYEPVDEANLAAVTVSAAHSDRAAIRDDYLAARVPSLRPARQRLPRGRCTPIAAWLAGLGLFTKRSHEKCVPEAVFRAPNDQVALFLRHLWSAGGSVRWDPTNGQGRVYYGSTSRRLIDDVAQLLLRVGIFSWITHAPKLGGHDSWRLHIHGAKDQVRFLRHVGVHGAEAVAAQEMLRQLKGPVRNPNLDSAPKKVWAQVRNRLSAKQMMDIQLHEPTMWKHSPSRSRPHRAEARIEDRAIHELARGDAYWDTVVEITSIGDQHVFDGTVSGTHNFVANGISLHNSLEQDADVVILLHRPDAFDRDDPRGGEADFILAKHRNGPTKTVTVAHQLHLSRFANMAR

Phospholipase A2 = Phospholipase A2 (Homo sapiens, UniProt P04054); type: functional;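 also: confirmatory dose-response counterscreen on phospholipase A2, testing hits that came from an ultra-high-throughput screen for ATG4B inhibitors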
Protein RecA = biological target: T2, Protein RecA (Mycobacterium tuberculosis, UniProt P9WHJ3); assay: Fluorescence Cell-Free Homogeneous Dose Retest to Identify Inhibitors of RecA-Intein Splicing Activity. [Related pubchem assays (depositor defined):AID2097, AID2223, AID489010, AID492950]; type: functional
T2 sequence (P9WHJ3 whole entry): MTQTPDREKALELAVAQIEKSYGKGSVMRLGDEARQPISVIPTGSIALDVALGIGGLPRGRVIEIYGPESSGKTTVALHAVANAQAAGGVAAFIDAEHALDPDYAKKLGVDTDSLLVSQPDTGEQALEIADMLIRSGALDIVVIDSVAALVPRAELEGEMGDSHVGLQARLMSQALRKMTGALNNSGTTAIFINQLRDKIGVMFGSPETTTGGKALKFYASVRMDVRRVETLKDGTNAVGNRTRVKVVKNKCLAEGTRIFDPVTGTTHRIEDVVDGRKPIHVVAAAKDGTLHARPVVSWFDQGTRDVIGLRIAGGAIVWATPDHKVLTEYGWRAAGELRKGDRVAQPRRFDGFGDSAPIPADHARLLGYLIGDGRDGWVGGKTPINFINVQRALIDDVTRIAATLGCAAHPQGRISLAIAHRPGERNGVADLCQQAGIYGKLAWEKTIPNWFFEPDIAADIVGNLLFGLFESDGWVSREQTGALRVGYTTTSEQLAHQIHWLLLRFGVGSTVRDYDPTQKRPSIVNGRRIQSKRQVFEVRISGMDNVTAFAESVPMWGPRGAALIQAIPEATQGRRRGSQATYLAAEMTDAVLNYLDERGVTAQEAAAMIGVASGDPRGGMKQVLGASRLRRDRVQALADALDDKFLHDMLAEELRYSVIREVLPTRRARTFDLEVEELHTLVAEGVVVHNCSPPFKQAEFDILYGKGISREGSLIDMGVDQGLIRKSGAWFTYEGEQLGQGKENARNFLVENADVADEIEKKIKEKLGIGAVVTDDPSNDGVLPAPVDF

Genome polyprotein = Genome polyprotein (dengue virus type 2, UniProt P29990); assay: flavivirus cap methylation enzyme inhibition – biochemical, confirmation dose response, primary screen (AID 588689); type: functional
[2] = biological target: DNA (cytosine-5)-methyltransferase 1 (Homo sapiens, UniProt P26358); assay: inhibition of DNA methylation by DNMT1 – biochemical, fluorescent molecular beacon, confirmation (AID 602386); type: functional
[3] = tested on: Streptococcus sp. 'group A'; assay: Streptococcus pyogenes SK(-)GAS viability under kanamycin – luminescence, BacTiterGlo, confirmation, counter-screen for streptokinase expression inhibitor project, dose response (AID 1900); type: functional, organism-based
[4] = biological target: Luciferin 4-monooxygenase (Photinus pyralis, UniProt P08659); assay: Counter Screen for Luciferase-based Assay Positives. [Related pubchem assays: 620, 618, 411 ]
[5] = biological target: T3, Heat shock factor protein 1 (Mus musculus, UniProt P38532); assay: decrease of HSF1-responsive luciferase luminescence – cell-based, NIH3T3, dose retest, confirmation (AID 2382); type: functional;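 also: NIH3T3 fibroblasts with HSF1-driven luciferase reporter stressed by proteasome inhibitor MG132; luminescence from HSF1-driven luciferase expression after 8 hours of MG132 stress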
T3 sequence (P38532 whole entry): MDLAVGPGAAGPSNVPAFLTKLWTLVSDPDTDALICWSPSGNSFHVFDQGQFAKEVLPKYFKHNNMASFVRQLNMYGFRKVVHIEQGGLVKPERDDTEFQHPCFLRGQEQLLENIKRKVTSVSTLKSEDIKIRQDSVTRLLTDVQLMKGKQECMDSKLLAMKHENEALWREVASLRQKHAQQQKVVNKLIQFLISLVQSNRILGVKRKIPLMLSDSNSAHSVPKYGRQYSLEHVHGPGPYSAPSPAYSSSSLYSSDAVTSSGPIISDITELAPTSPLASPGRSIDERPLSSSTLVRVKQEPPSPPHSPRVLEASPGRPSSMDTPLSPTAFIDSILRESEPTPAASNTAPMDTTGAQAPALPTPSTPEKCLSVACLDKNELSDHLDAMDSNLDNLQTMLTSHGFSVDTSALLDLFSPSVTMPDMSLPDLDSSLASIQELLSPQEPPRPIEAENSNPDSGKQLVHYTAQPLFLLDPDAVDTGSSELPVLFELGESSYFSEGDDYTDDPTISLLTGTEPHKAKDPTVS

Streptokinase A = biological target: T4, Streptokinase A (Streptococcus pyogenes serotype M1, UniProt P10520); assay: viability-normalized secreted streptokinase activity reduction – plasminogen activation absorbance, OD405, dose response (AID 1914); type: functional, Streptococcus pyogenes M1 GAS;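 also: secreted streptokinase activity via plasminogen activation per viability signal from cell pellet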
T4 sequence (P10520 whole entry): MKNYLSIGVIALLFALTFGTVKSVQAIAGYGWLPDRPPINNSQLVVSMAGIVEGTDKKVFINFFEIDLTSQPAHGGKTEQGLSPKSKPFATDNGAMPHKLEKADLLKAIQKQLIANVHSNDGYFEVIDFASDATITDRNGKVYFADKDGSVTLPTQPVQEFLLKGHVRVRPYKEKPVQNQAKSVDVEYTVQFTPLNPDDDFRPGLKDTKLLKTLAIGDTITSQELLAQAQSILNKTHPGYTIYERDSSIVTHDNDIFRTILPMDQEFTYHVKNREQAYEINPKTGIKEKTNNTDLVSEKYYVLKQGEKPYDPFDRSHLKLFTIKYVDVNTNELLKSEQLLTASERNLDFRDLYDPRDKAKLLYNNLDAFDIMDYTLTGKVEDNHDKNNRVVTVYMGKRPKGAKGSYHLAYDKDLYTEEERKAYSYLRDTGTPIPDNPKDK

Estrogen receptor = biological target: T5, Estrogen receptor (Homo sapiens, UniProt P03372);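 also: potency for inhibiting coactivator peptide recruitment to the receptor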
T5 sequence (P03372 whole entry): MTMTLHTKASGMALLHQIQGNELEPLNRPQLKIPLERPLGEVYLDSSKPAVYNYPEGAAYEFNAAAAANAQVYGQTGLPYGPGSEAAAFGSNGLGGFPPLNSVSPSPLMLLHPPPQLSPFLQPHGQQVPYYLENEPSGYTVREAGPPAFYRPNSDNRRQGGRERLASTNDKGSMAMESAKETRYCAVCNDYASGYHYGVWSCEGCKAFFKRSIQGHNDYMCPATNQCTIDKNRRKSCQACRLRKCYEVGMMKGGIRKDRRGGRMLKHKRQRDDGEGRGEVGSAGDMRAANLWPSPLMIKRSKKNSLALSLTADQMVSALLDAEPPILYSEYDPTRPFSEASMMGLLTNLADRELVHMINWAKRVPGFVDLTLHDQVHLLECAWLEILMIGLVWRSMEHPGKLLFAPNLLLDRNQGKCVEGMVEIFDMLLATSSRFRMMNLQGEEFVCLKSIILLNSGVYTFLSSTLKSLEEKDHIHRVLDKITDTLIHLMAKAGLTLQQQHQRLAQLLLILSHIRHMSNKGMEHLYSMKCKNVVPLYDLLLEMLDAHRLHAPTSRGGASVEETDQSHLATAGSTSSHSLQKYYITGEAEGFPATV

[6] = Trypanosoma cruzi growth suppression in host cells – NIH3T3 host cells, beta-gal luminescence, confirmation (AID 2044); type: functional, cell-based;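 also: intracellular parasites grown in NIH/3T3 mouse fibroblasts as host cells; luminescent beta-galactosidase reporter signal from transgenic T. cruzi replicating inside host cells; inhibitors lower the luminescence signal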
[7] = viability of PTEN-deleted HCT116 cells – cell-based, HCT116 PTEN knockout, dose response (AID 1047); type: functional;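 also: HCT116 colon tumor cells with PTEN knocked out; cells exposed to compound for 60 hours before readout; potency for loss of cell viability measured by luminescence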
HT-1080 = assay: HT1080 cell viability loss – fluorescence readout (AID 620); type: functional, cell-based; details: Homo sapiens
[8] = NIH3T3 cell viability loss – ATP luminescence, mouse fibroblasts, counter-screen, dose response (AID 2010); type: functional, cell-based;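 also: cells exposed to compound for about 90 hours before reading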
[9] = viability of HCT116 lacking mutant beta-catenin – cell-based, human colon tumor, dose response (AID 1045); type: functional;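 also: HCT116 colon tumor cells with beta catenin knocked out; cells exposed to compound for 60 hours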
Streptococcus = assay: GAS UMAA2166 growth inhibition – luminescence, BacTiterGlo, counter-screen for streptokinase expression inhibitor project, dose response (AID 1915); type: functional, organism-based;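 also: potency for reduction of bacterial viability or growth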
[10] = THP-1 cell cytotoxicity, dose response, cytotoxicity control for non-replicating M. tuberculosis project (AID 489025); type: functional
[11] = Vero E6 cell cytotoxicity, dose response, cytotoxicity control for non-replicating M. tuberculosis project, secondary assay (AID 492998); type: functional, VeroE6; details: Vero C1008
[12] = HEK-293T viability loss after treatment – luminescence, T-cell screen hits, cytotoxicity control for TCR NF-kB inhibitor project, dose response (AID 489026); type: functional, cell-based;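 also: cells exposed to compound about 14 hours before the viability readout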
[13] = biological target: T6, Microphthalmia-associated transcription factor (Homo sapiens, UniProt O75030); assay: reducers of TRPM1 reporter luminescence, concentration series – cell-based, SK-MEL-5, cherry-picked, set 3, MITF inhibitor project, dose response (AID 493073); type: functional;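 also: SK-MEL-5 melanoma cells with luciferase driven by the MITF target TRPM1 promoter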
T6 sequence (O75030 whole entry): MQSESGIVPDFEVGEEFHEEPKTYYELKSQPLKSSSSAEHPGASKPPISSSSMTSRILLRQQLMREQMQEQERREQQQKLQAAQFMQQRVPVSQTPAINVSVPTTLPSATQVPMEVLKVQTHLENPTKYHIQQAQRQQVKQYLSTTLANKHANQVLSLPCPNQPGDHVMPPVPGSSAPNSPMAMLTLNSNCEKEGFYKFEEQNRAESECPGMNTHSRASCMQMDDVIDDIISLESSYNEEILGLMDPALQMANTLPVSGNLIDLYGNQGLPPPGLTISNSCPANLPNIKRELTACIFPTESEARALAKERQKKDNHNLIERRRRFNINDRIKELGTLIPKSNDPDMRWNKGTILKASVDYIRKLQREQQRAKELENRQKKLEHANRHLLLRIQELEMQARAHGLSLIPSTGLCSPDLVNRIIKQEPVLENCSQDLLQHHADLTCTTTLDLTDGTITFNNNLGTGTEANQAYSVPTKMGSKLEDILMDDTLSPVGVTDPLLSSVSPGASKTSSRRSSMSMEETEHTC

cells = type: functional
Cytochrome P450 2C19 = Cytochrome P450 2C19 (Homo sapiens, UniProt P33261); assay: Cytochrome panel assay with activity outcomes. Panel member name: p450-cyp2c19 Compounds with AC50 equal or less than 10 uM are considered active; type: functional; details: read-out: AC50
H4 [14] = assay: inhibitors of control reporter signal in H4 cells – cell-based, plate reader, dry powder samples, counter-screen for prion reporter project, dose response (AID 540255); type: functional; details: Homo sapiens
H4 [15] = assay: Amyloid Precursor 5' UTR neuroblastoma cell reporter line Measured in Cell-Based System Using Plate Reader - 2078-04_Inhibitor_Dose_DryPowder_Activity. [Related pubchem assays (depositor defined):AID488894]; type: functional; details: Homo sapiens
H4 [16] = assay: Inhibitors of Prion Protein 5' UTR mRNA Measured in Cell-Based System Using Plate Reader - 2078-01_Inhibitor_Dose_DryPowder_Activity. [Related pubchem assays (depositor defined):AID488894]; type: functional; details: Homo sapiens
Cytochrome P450 2D6 = Cytochrome P450 2D6 (Homo sapiens, UniProt P10635);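 also: CYP2D6 member of a cytochrome P450 panel assay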
Cytochrome P450 2D6, sequence (P10635 whole entry): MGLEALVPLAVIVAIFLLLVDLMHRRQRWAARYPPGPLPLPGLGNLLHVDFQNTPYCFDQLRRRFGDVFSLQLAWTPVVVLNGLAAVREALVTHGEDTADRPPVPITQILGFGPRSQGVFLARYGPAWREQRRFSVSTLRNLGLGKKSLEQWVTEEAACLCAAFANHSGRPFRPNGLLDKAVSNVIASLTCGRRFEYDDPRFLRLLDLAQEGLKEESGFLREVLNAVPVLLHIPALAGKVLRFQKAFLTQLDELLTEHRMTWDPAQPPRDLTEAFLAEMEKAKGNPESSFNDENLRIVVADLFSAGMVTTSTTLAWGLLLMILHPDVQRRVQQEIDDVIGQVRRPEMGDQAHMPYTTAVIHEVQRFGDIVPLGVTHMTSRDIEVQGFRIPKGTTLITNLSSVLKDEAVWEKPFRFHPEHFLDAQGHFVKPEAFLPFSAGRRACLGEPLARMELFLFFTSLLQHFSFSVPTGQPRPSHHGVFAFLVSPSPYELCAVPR

Cysteine protease ATG4B, sequence (Q9Y4P1 whole entry): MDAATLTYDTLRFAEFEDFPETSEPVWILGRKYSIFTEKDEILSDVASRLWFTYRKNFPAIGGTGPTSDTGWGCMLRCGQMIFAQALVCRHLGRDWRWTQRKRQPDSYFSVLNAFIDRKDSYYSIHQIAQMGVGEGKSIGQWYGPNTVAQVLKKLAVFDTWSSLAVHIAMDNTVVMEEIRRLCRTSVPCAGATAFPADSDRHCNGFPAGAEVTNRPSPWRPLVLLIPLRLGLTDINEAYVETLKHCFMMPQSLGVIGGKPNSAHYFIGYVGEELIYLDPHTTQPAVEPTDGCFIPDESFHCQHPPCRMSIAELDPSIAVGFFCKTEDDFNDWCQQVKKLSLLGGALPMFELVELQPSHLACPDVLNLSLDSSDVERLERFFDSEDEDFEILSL
Cytochrome P450 2C19, sequence (P33261 whole entry): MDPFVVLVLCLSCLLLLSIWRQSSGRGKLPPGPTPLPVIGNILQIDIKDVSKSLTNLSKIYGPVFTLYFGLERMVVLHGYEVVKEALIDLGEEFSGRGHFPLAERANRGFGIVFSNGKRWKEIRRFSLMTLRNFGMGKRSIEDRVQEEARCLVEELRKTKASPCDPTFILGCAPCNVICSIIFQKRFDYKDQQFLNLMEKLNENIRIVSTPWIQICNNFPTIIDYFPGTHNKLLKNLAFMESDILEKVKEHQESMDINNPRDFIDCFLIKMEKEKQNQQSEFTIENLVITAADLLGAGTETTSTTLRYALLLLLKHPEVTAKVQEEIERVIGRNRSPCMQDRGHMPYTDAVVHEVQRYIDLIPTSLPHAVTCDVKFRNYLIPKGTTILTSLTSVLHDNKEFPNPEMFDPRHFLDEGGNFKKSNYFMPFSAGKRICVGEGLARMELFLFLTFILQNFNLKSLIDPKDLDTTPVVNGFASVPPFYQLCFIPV
Phospholipase A2, sequence (P04054 whole entry): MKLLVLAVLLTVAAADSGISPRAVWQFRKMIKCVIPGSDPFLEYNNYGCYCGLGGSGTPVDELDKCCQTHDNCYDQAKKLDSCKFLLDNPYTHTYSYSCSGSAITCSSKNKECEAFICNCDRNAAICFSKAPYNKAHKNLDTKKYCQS
DNA (cytosine-5)-methyltransferase 1, sequence (P26358 whole entry): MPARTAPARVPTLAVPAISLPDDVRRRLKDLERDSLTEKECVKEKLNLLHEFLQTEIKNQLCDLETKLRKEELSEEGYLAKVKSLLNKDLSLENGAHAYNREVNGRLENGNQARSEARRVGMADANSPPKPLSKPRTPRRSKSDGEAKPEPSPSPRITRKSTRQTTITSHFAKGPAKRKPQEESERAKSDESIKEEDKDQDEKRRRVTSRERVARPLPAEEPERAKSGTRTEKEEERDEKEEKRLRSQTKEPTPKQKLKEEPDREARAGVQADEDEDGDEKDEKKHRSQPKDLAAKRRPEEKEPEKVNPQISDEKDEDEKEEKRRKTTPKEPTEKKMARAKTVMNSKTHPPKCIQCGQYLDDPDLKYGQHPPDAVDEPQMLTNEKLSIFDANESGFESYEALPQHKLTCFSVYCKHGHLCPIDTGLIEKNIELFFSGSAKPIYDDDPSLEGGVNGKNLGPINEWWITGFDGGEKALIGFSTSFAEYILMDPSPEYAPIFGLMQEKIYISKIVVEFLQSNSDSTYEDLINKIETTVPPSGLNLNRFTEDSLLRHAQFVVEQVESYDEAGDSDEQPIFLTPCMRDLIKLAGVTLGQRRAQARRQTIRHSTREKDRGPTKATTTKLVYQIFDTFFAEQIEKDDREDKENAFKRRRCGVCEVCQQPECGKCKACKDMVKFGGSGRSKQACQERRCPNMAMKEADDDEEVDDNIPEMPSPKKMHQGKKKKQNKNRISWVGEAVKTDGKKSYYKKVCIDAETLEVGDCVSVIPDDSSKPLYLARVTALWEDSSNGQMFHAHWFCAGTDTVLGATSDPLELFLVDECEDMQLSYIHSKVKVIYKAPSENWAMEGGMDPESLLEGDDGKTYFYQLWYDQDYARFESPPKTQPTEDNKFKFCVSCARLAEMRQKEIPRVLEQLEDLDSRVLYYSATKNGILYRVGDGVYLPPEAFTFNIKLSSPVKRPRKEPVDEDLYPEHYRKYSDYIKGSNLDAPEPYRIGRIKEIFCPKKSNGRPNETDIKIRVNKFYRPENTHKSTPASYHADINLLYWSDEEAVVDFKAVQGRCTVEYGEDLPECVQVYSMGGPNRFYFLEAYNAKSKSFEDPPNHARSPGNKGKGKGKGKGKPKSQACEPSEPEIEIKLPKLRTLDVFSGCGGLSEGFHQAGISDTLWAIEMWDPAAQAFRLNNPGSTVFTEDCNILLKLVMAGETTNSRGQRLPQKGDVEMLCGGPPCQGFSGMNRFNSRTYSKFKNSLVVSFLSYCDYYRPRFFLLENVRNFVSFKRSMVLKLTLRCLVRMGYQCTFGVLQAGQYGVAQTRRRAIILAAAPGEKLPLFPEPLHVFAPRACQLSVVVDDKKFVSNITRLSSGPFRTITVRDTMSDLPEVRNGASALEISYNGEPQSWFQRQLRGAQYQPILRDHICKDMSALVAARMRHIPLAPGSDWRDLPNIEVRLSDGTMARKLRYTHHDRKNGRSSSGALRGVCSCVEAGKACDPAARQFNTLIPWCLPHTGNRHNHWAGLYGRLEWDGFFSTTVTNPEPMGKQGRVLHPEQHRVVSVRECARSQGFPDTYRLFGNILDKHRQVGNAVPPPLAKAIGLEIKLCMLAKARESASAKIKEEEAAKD
Genome polyprotein, sequence (P29990 2492-3391 limits assumed): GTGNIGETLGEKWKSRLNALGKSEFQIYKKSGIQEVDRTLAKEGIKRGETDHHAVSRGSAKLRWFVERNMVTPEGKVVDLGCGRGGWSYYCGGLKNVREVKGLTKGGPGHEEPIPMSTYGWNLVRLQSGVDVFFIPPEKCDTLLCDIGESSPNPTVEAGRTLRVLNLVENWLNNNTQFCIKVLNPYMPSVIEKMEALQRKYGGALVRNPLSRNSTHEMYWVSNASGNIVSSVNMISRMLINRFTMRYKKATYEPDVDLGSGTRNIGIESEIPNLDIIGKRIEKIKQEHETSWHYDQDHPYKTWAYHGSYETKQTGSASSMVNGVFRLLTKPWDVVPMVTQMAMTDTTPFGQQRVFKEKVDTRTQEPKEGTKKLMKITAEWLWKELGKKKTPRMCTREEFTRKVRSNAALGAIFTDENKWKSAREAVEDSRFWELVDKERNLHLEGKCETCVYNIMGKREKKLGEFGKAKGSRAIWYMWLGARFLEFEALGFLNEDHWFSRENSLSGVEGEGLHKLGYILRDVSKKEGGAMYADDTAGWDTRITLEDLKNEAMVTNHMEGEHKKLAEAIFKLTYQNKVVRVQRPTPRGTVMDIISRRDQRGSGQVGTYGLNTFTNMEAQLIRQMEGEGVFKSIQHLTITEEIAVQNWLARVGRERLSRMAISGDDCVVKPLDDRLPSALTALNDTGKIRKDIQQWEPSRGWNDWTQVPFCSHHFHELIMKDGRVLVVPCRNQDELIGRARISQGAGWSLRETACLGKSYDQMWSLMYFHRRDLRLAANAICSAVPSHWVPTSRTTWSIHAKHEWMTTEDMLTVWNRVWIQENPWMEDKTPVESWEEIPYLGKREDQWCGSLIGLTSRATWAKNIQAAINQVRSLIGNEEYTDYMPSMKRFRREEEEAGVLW
Luciferin 4-monooxygenase, sequence (P08659 whole entry): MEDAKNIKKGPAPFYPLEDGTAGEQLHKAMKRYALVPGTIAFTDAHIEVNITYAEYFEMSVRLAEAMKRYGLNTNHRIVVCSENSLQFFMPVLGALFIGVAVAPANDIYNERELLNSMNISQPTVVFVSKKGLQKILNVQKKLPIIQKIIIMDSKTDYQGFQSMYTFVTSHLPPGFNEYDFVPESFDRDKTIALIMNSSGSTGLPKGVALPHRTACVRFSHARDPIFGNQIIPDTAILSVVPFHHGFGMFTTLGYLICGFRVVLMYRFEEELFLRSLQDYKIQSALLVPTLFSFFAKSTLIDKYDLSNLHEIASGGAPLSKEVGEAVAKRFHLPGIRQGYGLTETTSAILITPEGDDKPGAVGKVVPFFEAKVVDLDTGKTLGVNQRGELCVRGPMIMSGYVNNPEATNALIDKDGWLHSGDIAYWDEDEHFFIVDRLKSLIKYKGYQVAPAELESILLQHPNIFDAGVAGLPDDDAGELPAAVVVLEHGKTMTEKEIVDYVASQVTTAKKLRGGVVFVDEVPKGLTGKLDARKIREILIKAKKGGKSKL

C/C(=C/CCC(C)[C@H]1CC[C@@]2(C)C3=C(CC[C@]12C)[C@@]1(C)CCC(=O)C(C)(C)[C@@H]1CC3)C(=O)O (some centres not stated)
IC50 (Cysteine protease ATG4B): 5.45 µM (active) | AC50 [1]: 2.12 µM (active) | IC50 (Phospholipase A2): 2.04 µM (active) | EC50 (Protein RecA): 5.88 µM (active) | IC50 (Genome polyprotein): 47.9 µM (active) | IC50 [2]: 5.93 µM (active)

Cc1ccc(C(=O)N/N=C/c2ccc([N+](=O)[O-])s2)cc1
EC50 [3]: 5.16 µM (active) | EC50 [4]: 3.5 µM (active) | EC50 [5]: 324 nM (active) | EC50 (Streptokinase A): > 150 µM (not active) | IC50 (Estrogen receptor): 21.1 µM (active) | EC50 [6]: 720 nM (active) | EC50 [7]: 3.05 µM (active) | EC50 (HT-1080): > 50 µM (not active) | EC50 [8]: > 30 µM (not active) | EC50 [9]: 3.5 µM (active) | EC50 (Streptococcus): 14.3 µM (active) | CC50 [10]: 12.2 µM (active) | CC50 [11]: 11.5 µM (active) | IC50 [12]: > 80 µM (inactive) | AC50 [13]: 2.2 µM (active) | IC50 (cells): 5.2 µM (active) | AC50 (Cytochrome P450 2C19): 39.8 µM (inconclusive) | AC50 (H4 [14]): 3.18 µM (active) | AC50 (H4 [15]): 3 µM (active) | AC50 (H4 [16]): 875 nM (active) | AC50 (Cytochrome P450 2D6): 15.8 µM (inconclusive)
